Key:
[1] = tested on: stress urinary incontinence; conditions: clinical study; cited from earlier work
[2] = tested on: SD female rats; assay: Reaction increasing urethra internal pressure induced by electrical stimulation of rat pudendal nerve; format: in vivo; conditions: anesthetized SD female rats, 3 or 10 mg/kg intravenously, about three minutes after administration; FIG. 2
Method: Test to Evaluate Reinforcing Action of Compound A on Reaction Increasing Urethra Internal Pressure Induced by Electrical Stimulation of Rat Pudendal Nerve
SD female rats (Japan SLC, Inc.) having a body weight of 200-350 g were anesthetized with urethane (1.2 g/kg, sc; Sigma-Aldrich), and a catheter (PE-50; Becton Dickinson) was lodged in the jugular vein for administering the test substance. Laparotomies were performed, and the dome of the bladder was cut open to allow discharge of the urine in the bladder. A microchip pressure transducer catheter (3.5Fr; Millar Instruments) was inserted from the external urethral orifice toward the bladder to measure the urethra internal pressure. The rats were arranged prone, the back was cut open, and several left and right pudendal nerves were isolated and held in place with exciting electrodes. […] The average of the reactions increasing urethra internal pressure by electrical stimulation three times before administering the test substance was calculated as the level before administering the test substance, and the percentage of reaction increasing urethra internal pressure by electrical stimulation about three minutes after administering the test substance to the value before administering the test substance was calculated for each of the treatment groups.

[3] = tested on: rat extensor digitorum longus muscle; conditions: rat extensor digitorum longus muscle including a fast-muscle component; cited from earlier work
[4] = tested on: rat diaphragm; conditions: in vitro, transmural electrical stimulation; cited from earlier work
[5] = tested on: rat extensor digitorum longus muscle; conditions: in vivo, electrical stimulation of the rat fibular nerve; cited from earlier work
[6] = tested on: external urethral sphincter of extracted rat urethra; assay: External urethral sphincter contractile response induced by transmural electrical stimulation using extracted rat urethra; conditions: extracted rat urethra strips, 10 or 30 μmol/L, 15 minutes after addition, transmural electrical stimulation 20 V, 20 Hz; FIG. 1
[7] = tested on: rat diaphragm myofibrils; conditions: cited from earlier work
[8] = preclinical study; cited from earlier work

CNCC[C@H](Oc1cccc2ccccc12)c1cccs1 [duloxetine]
adverse drug reactions [1]: undesirable adverse drug reactions such as suicide attempts were reported
efficacy on stress urinary incontinence [1]: effective on stress urinary incontinence

NC(=O)c1ccn(-c2cnc(NC[C@]3(c4ncccc4F)C[C@H](F)C3)nc2)c1 [Compound A, 1-[2-({[trans-3-fluoro-1-(3-fluoropyridin-2-yl)cyclobutyl]methyl}amino)pyrimidin-5-yl]-1H-pyrrole-3-carboxamide]
reaction increasing urethra internal pressure after administration relative to before administration [2]: reinforced a reaction increasing urethra internal pressure
shift of concentration-response curve of intracellular calcium ions concentration and muscle tension [3]: shift the concentration-response curve of intracellular calcium ions concentration and muscle tension to the left
contractile response of rat diaphragm [4]: reinforcing the contractile response of a rat diaphragm
extensor digitorum longus muscle contractile response [5]: reinforcing extensor digitorum longus muscle contractile response
contractile response of the external urethral sphincter after adding test substance relative to before adding [6]: reinforced contractile response of the external urethral sphincter
shift of concentration-response curve of intracellular calcium ions concentration and muscle tension [7]: shift the concentration-response curve of intracellular calcium ions concentration and muscle tension to the left

CNCCC(Oc1ccccc1OC)c1ccccc1 (stereo not drawn) [nisoxetine]
incontinence induced by sneezing [8]: improved incontinence induced by sneezing
urethra internal pressure [8]: increased urethra internal pressure

CCOc1ccccc1O[C@@H](c1ccccc1)[C@@H]1CNCCO1 [(S,S)-reboxetine]
efficacy on stress urinary incontinence [1]: effective for stress urinary incontinence
urethral resistance [1]: increased urethral resistance
